In a melting point compilation (Tetko et al.):

Compound | melting point [°C]
OC(c1ccccc1)(c1ccccc1)C1CCNCC1 | 160
O=[N+]([O-])c1ccc(I)c([N+](=O)[O-])c1 | 89
CC(=O)N[Si](C)(C)C | 41
NC(=O)N(CCO)N=Cc1ccc([N+](=O)[O-])o1 | 214
COS(=O)(=O)c1ccc(C)cc1 | 28.5
C=Cc1c(SC)sc(C(=O)O)c1C | 172 to 174
CCCCCCCCCCCCC(Br)C(=O)O (stereo unspecified) | 42
CC1=CC2OC3C(O)CC(C)(C34CO4)C2(CO)C(O)C1=O (stereo unspecified) | 152
CC(=O)NC(N)=S | 165
CNN | -21
CN(C)c1nc(=O)n(C2CCCCC2)c(=O)n1C | 116
CN(C(=O)OC(C)(C)C)C(C)(C)C(=O)O | 153 to 157
COC(=O)C1C2(C)C=CC(O2)C1(OC)OC (stereo unspecified) | 60 to 62
Clc1cc(Cl)c2oc3c(Cl)c(Cl)cc(Cl)c3c2c1 | 204
NC(=S)NNC(N)=S | 200 to 203
O=C1NCCN1 | 131
N#Cc1c(NC(=O)c2ccc(Cl)cc2Cl)sc2c1CCCC2 | 201 to 202
C#CCCCCCCCCCCC | -5
O=Cc1scc2c1OCCO2 | 138 to 140
NC(=O)c1ccc(F)c(C(F)(F)F)c1 | 84.5
CCOC(=O)C(C(C)=O)C(=O)c1ccc(C(=O)C(C(C)=O)C(=O)OCC)cc1 (stereo unspecified) | 99

Compound | melting point [°C]
CCOC(=O)C(=NOC(C)(C)C(=O)OC(C)(C)C)c1csc(N)n1 | 168 to 174
CC12CCC(O)CC1=CCC1C2CCC2(C)C1CCC2(C)O (stereo unspecified) | 206
O=C1NCCO1 | 87
O=C(Nc1ccc(Cl)c(Cl)c1)c1cc(Cl)cc(Cl)c1O | 162
O=[N+]([O-])c1cc(Br)cc2c1NCC2 | 131
NNCCO | -70
O=[N+]([O-])c1cncn1CCN1CCOCC1 | 110
Cc1cc(=O)oc2cc(O)c(Cl)cc12 | 278 to 280
CC(C)N1C(=O)c2ccccc2NS1(=O)=O | 140
CC(O)CC(C)(C)C (stereo unspecified) | -60
O=C(O)c1cc([N+](=O)[O-])cc(C(F)(F)F)c1 | 130
CC(=O)OC1CC2C(C)C(=O)C3(C4CC5C(C)(C)CCC(OC(C)=O)C5(C(OC(C)=O)O4)C13)C2OC(C)=O (stereo unspecified) | 265
O=C(OCC1OC(O)(COC(=O)c2cccnc2)C(OC(=O)c2cccnc2)C1OC(=O)c1cccnc1)c1cccnc1 (stereo unspecified) | 141
Ic1ccc2c(c1)Oc1ccccc1O2 | 95
CN1CC(C(=O)NC2(C)OC3(O)C4CCCN4C(=O)C(Cc4ccccc4)N3C2=O)C=C2c3cccc4[nH]cc(c34)CC21 (stereo unspecified) | 214
COC(=O)c1c(C)cc(=O)oc1C | 66 to 70
c1ccc(Nc2ccc3ccccc3c2)cc1 | 108
COc1ccc(Cl)cc1C#N | 100
OCC1CCN(c2ncccn2)CC1 | 52 to 54
NNC(=O)c1cncc(Br)c1 | 199 to 202
BrCc1cc(CBr)c(CBr)cc1CBr | 156 to 162

Compound | melting point [°C]
OC1OCCCC1(Cl)Cl (stereo unspecified) | 87 to 90
CSc1nc(N)nc(C2CC2)n1 | 157 to 159
O=S(=O)(Cl)c1cc(Cl)c(Cl)s1 | 56
CS(=O)(=O)NC(=O)c1cc(Oc2ccc(C(F)(F)F)cc2Cl)ccc1[N+](=O)[O-] | 220
Brc1cc(Br)c(Oc2cc(Br)c(Br)cc2Br)c(Br)c1 | 131 to 132
CC(CC1CCCCC1)C1CCCCC1 (stereo unspecified) | -22
NC(=S)c1ccncc1 | 201
C=CC(OC(C)=O)OC(C)=O | -37.6
Nc1ccc2nsnc2c1 | 112 to 114
Brc1n[nH]c(Br)c1Br | 190 to 192
O=C1CCCCC1 | -26
Brc1ccc2c(c1)CCO2 | 49 to 50
NCC[C@H](O)C(=O)O | 200 to 203
C=CC1CN2CCC1CC2C12Nc3ccccc3C1(O)CCO2 (stereo unspecified) | 186
CC(=O)OC1(C(C)=O)CCC2C3C=C(C)C4=CC(=O)CCC4(C)C3CCC21C (stereo unspecified) | 214
CC(O)C#N (stereo unspecified) | -40
C=CC(C)(C)O | -28
Cc1cc(C(=O)O)n[nH]1 | 241 to 242
COc1ccc(C)cc1N | 53
C=C(C)[C@H]1CC=C(C)C(=O)C1 | 89
O=C(C(Br)Br)C(Br)(Br)Br | 79.5

The next lines start with the values.

melting point [°C] | Compound
139 | O=C(OCc1ccc([N+](=O)[O-])cc1[N+](=O)[O-])c1ccccc1
20 | CCCN(CCC)C(=O)COC(=O)c1ccccc1
300 | O=S(=O)(O)c1cccc2cnccc12
130 | O=C(Nc1ccc(F)cc1)c1c(O)c(F)c(F)c(F)c1F
33 | CC(=O)c1ccc(C=O)cc1
65 | COC(=O)c1ccccc1SC
74 | CC(O)c1ccc2ccccc2c1 (stereo unspecified)
86 to 88 | Nc1ccc(F)cc1N
72.5 | C(=C(c1ccccc1)c1ccccc1)c1ccccc1
47 | CN(NC=O)c1ccccc1
160 | COc1ccc(Br)c(C(N)=O)c1
205 | O=[N+]([O-])c1cccc(-c2nnc3n2NC(c2ccccc2)S3)c1 (stereo unspecified)
137 to 138 | O=c1c(Br)c(SCc2ccccc2)cnn1-c1ccccc1
175 to 177 | N#Cn1c(N)nc2ccccc21
152 | Cc1ccc2cc3c(ccc4ccccc43)cc2c1
65 to 67 | O=Cc1ccc(Sc2ccccn2)o1
140 | Cc1ccc([C@H]2O[C@@H](c3ccc(C)cc3)[C@H](C)C(=O)[C@@H]2C)cc1
66 to 67 | NC(Cc1ccccc1)=NO
125 | O=C(NCCN=Cc1ccccn1)C(=O)NCc1ccccn1
120 to 125 | CC(C)(C)OC(=O)N[C@H](CC#N)Cc1ccccc1
150 | COc1ccc(C(=O)c2noc(-c3ccc(Br)cc3)c2S(=O)(=O)c2ccccc2)cc1
230 | O=S1(=O)OC(c2cc(Cl)c(O)c(Br)c2)(c2cc(Cl)c(O)c(Br)c2)c2ccccc21
62 | CCN(CC)c1ccc(C=O)c(O)c1

melting point [°C] | Compound
150 | O=C(O)C1=Cc2ccccc2OC1
133 to 135 | Cc1c(-c2ccccc2)sc2ncnc(Cl)c12
111 to 113 | CSC(=Nc1nnc(-c2ccccc2)s1)SC
69 | Cc1ccc(Oc2ccc([N+](=O)[O-])cc2)cc1
176 | N=C(N)NC(=N)NCCc1ccccc1
-13 | CC(=O)CCc1ccccc1
125 to 128 | Nc1snnc1-c1ccc(C(F)(F)F)cc1
102 | COc1ccc(C2Cc3ccccc3C(C)(O)O2)cc1 (stereo unspecified)
103 to 105 | NNC(=O)c1ccccc1OC(F)(F)F
159 | Cc1cccc(C)c1NC(=O)CN1CCN(CCCC(c2ccc(F)cc2)c2ccc(F)cc2)CC1
236 | Cc1cc2c(cc1S(N)(=O)=O)S(=O)(=O)CCC2
58 | C=C(C)c1ccc(C)c2ccc(C=O)c-2c1
43 | O=[N+]([O-])c1ccc(Br)c(C(F)(F)F)c1
71 to 72 | Nc1ccc(Oc2ccccc2)nc1
156 | CC1(C)OC(=O)C(=Cc2ccc(Cl)cc2Cl)C(=O)O1
119 | Cc1cc(C=O)ccc1O
142 to 144 | Cn1nc(C(=O)O)cc1-c1ccco1
196 | COc1ccc2sc(S)nc2c1
79 | COC(=O)c1ccc2cc[nH]c2c1
56 to 59 | Cc1cc(CO)c(-c2ccccc2)o1
175 | CCc1ccccc1NC(=O)c1cccc2ccccc12
175 | CC1=C(C(=O)OCc2ccccc2)C(c2ccccc2)NC(=S)N1 (stereo unspecified)
85 | COC(=O)C(C)N(C(=O)c1ccccc1)c1ccc(F)c(Cl)c1 (stereo unspecified)

melting point [°C] | Compound
170 | COc1ccc(C2(C)CCc3oc4ccc(C)cc4c3-c3oc(C)cc32)cc1 (stereo unspecified)
196 | CC(=O)c1ccc2c(c1)NC(=O)CO2
156 | O=C(C1=NOC2C(=O)N(c3ccc(F)cc3)C(=O)C12)c1ccccc1 (stereo unspecified)
293 | Cn1c(=O)c(C2=NNC(=O)C2=CNc2ccc(Br)cc2)c(O)c2ccccc21
80 to 87 | C#Cc1ccc(-c2ccccc2)cc1
260 | COC(=O)Nc1nc2cc(C(=O)c3ccc(F)cc3)ccc2[nH]1
283 to 284 | O=C(O)c1csc(-c2cccnc2)n1
98 | CC(=O)Nc1ccc(Cl)cc1[N+](=O)[O-]
170 to 171 | CC(C)S(=O)(=O)c1csc(C(=O)Cl)c1Cl
205 to 207 | Cc1ccc(Sc2ncccc2C(N)=O)cc1
139 to 140 | Ic1ccc(-c2ccno2)cc1
120 to 123 | Cc1cc(O)c(C(=O)CC(=O)c2ccccc2)cc1Cl
151 | CN(C)c1cccc(C(=O)O)c1
193 to 197 | NC(=S)Nc1cccc2ccccc12
120 | O=C(O)c1cc(S(=O)(=O)O)ccc1O
233 to 234 | O=C(O)c1csc(-c2cccc(Cl)c2Cl)n1
52 | CN(C)c1cccc2c(S(=O)(=O)F)cccc12
37 | Cc1cccc(C(C)(C)C)c1N=C=O
240 to 242 | N=C1N=C2CCC(c3ccccc3)=NN2CN1
151 to 154 | O=C(O)CS(=O)(=O)C=Cc1ccccc1
129 | O=C(O)Cc1ccc(Cl)cc1Cl
164 | O=C(O)c1cccc(C(=O)c2ccccc2)c1
